Experimental data as given in patent US8334382B2, “Substituted biaryl piperazinyl-pyridine analogues” (Neurogen Corporation, priority 2004, dated 2012).

Target: T1, human capsaicin receptor (Homo sapiens, UniProt Q8NER1)
T1 construct: expressed in transfected cells; host or cells: HEK293, stably transfected with pBK-CMV construct
Assay: Calcium mobilization assay, determination of antagonist activity
Assay type: cell-based
Conditions: capsaicin at EC50; cells expressing human capsaicin receptor; Example 6
Experimental: A cDNA encoding full length human capsaicin receptor (SEQ ID NO:1, 2 or 3 of U.S. Pat. No. 6,482,611) is subcloned in the plasmid pBK-CMV (Stratagene, La Jolla, Calif.) for recombinant expression in mammalian cells.
Human embryonic kidney (HEK293) cells are transfected with the pBK-CMV expression construct encoding the full length human capsaicin receptor using standard methods. The transfected cells are selected for two weeks in media containing G418 (400 μg/ml) to obtain a pool of stably transfected cells. Independent clones are isolated from this pool by limiting dilution to obtain clonal stable cell lines for use in subsequent experiments.
Cells transfected with expression plasmids (as described in Example 4) and thereby expressing human capsaicin receptor are seeded and grown to 70-90% confluency in FALCON black-walled, clear-bottomed 96-well plates (#3904, BECTON-DICKINSON, Franklin Lakes, N.J.). The culture medium is emptied from the 96 well plates and FLUO-3 AM calcium sensitive dye (Molecular Probes, Eugene, Oreg.) is added to each well (dye solution: 1 mg FLUO-3 AM, 440 μL DMSO and 440 μl 20% pluronic acid in DMSO, diluted 1:250 in Krebs-Ringer HEPES (KRH) buffer (25 mM HEPES, 5 mM KCl, 0.96 mM NaH2PO4, 1 mM MgSO4, 2 mM CaCl2, 5 mM glucose, 1 mM probenecid, pH 7.4), 50 μl diluted solution per well). Plates are covered with aluminum foil and incubated at 37° C. for 1-2 h in an environment containing 5% CO2. After the incubation, the dye is emptied from the plates, and the cells are washed once with KRH buffer, and resuspended in KRH buffer.
To measure the ability of a test compound to agonize or antagonize a calcium mobilization response in cells expressing capsaicin receptors to capsaicin or other vanilloid agonist, the EC50 of the agonist capsaicin is first determined. An additional 20 μl of KRH buffer and 1 μl DMSO is added to each well of cells, prepared as described above. 100 μl capsaicin in KRH buffer is automatically transferred by the FLIPR instrument to each well. Capsaicin-induced calcium mobilization is monitored using either FLUOROSKAN ASCENT (Labsystems; Franklin, Mass.) or FLIPR (fluorometric imaging plate reader system; Molecular Devices, Sunnyvale, Calif.) instruments. Data obtained between 30 and 60 seconds after agonist application are used to generate an 8-point concentration response curve, with final capsaicin concentrations of 1 nM to 3 μM. KALEIDAGRAPH software (Synergy Software, Reading, Pa.) is used to fit the data to the equation: y=a*(1/(1+(b/x)^c)) to determine the 50% excitatory concentration (EC50) for the response. In this equation, y is the maximum fluorescence signal, x is the concentration of the agonist or antagonist (in this case, capsaicin), a is the Emax, b corresponds to the EC50 value and c is the Hill coefficient. Determination of Agonist Activity
Test compounds are dissolved in DMSO, diluted in 20 μl KRH buffer so that the final concentration of test compounds in the assay well is between 1 μM and 5 μM, and added to cells prepared as described above. The 96 well plates containing prepared cells and test compounds are incubated in the dark, at room temperature for 0.5 to 6 h. It is important that the incubation not continue beyond 6 h. Just prior to determining the fluorescence response, 100 μl capsaicin in KRH buffer at twice the EC50 concentration determined as described above is automatically added by the FLIPR instrument to each well of the 96 well plate for a final sample volume of 200 μl and a final capsaicin concentration equal to the EC50. The final concentration of test compounds in the assay wells is between 1 μM and 5 μM. […] The concentration of antagonist required to provide a 50% decrease, relative to the response observed in the presence of capsaicin and without antagonist, is the IC50 for the antagonist, and is preferably below 1 micromolar, 100 nanomolar, 10 nanomolar or 1 nanomolar.

T1 sequence (Q8NER1 whole entry): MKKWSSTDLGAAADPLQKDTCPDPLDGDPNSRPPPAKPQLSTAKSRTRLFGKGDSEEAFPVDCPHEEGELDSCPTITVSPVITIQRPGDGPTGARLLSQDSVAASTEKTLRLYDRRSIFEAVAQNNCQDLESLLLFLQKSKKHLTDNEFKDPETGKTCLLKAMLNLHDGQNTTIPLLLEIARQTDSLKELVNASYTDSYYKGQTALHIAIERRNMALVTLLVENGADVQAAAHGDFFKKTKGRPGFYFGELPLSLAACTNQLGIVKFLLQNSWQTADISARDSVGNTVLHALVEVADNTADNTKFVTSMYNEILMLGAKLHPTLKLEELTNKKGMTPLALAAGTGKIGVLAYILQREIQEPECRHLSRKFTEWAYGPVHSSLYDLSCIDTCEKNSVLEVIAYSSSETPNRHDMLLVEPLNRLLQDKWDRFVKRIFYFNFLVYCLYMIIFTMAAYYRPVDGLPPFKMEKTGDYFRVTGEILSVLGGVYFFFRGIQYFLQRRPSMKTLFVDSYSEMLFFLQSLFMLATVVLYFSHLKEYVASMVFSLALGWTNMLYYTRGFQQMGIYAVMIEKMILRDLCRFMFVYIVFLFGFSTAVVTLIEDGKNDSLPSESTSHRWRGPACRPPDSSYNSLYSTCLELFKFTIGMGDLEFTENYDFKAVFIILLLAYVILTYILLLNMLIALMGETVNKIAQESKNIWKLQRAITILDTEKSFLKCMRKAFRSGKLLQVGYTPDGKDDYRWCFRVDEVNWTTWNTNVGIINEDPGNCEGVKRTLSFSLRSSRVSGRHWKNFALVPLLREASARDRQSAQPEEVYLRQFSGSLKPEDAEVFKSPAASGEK

SMILES	IC50 [µM]
Cc1cc(C(=O)O)cnc1N1CCN(c2cc(-c3ccccc3)nc(N3CCCC3C)n2)CC1 (centres unmarked) [Example 75, 5-Methyl-6-{4-[2-(2-methyl-pyrrolidin-1-yl)-6-phenyl-pyrimidin-4-yl]-piperazin-1-yl}-nicotinic acid]	≤ 1
CCOC(=O)c1cccnc1N1CCN(c2cc(-c3ccc(F)c(Cl)c3)nc(N3CCOCC3)n2)CC1 [Example 1, 2-{4-[6-(3-Chloro-4-fluoro-phenyl)-2-morpholin-4-yl-pyrimidin-4-yl]-piperazin-1-yl}-nicotinic acid ethyl ester]	≤ 1
Cc1cc(C(=O)O)cnc1N1CCN(c2cc(-c3ccc(F)c(Cl)c3)nc(N(C)C(C)C)n2)CC1 [Example 161, 6-{4-[6-(3-Chloro-4-fluoro-phenyl)-2-(isopropyl-methyl-amino)-pyrimidin-4-yl] - piperazin-1-yl}-5-methyl-nicotinic acid]	≤ 1
Cc1cccc(-c2cc(N3CCN(c4ncc(CO)cc4Cl)C[C@H]3C)nc(N3CCCC3C)n2)c1 (stereo partly drawn) [Example 48, (5-Chloro-6-{3-(R)-methyl-4-[2-(2-methyl-pyrrolidin-1-yl)-6-m-tolyl-pyrimidin-4-yl]-piperazin-1-yl}-pyridin-3-yl)-methanol]	≤ 1
CCOCCCNC(=O)c1cnc(N2CCN(c3cc(-c4ccc(F)cc4)nc(N4CCCC4C)n3)CC2)c(C)c1 (centres unmarked) [Example 112, N-(3-ethoxypropyl)-6-{4-[6-(4-fluorophenyl)-2-(2-methylpyrrolidin-1-yl)pyrimidin-4-yl]piperazin-1-yl}-5-methylnicotinamide]	≤ 1
Cc1cc(C(=O)O)cnc1N1CCN(c2cc(-c3ccccc3)nc(N3CCCC3C)n2)[C@H](C)C1 (stereo partly drawn) [Example 68, 5-Methyl-6-{3-(R)-methyl-4-[2-(2-methyl-pyrrolidin-1-yl)-6-phenyl-pyrimidin-4-yl]-piperazin-1-yl}-nicotinic acid]	≤ 1
CC1CCCN1c1nc(-c2ccc(F)c(Cl)c2)cc(N2CCN(c3ncc(C(N)=O)cn3)CC2)n1 (centres unmarked) [Example 97, 2-{4-[6-(3-Chloro-4-fluoro-phenyl)-2-(2-methyl-pyrrolidin-1-yl)-pyrimidin-4-yl]-piperazin-1-yl}-pyrimidine-5-carboxylic acid amide]	≤ 1
C[C@@H]1CCCN1c1nc(-c2ccc(F)cc2)cc(N2CCN(c3ncc(CC(=O)O)cc3Cl)CC2)n1 [Example 93, (5-Chloro-6-{4-[6-(4-fluoro-phenyl)-2-(2-(R)-methyl-pyrrolidin-1-yl)-pyrimidin-4-yl]-piperazin-1-yl}-pyridin-3-yl)-acetic acid]	≤ 1
Cc1cc(C(=O)O)cnc1N1CCN(c2cc(-c3cccc(Cl)c3)nc(N3CCC[C@H]3C)c2)[C@H](C)C1 [Example 175, 6-{4-[2-(3-Chloro-phenyl)-6-(2-(R)-methyl-pyrrolidin-1-yl)-pyridin-4-yl]-3-(R)-methyl-piperazin-1-yl}-5-methyl-nicotinic acid]	≤ 1
CC1CCCN1c1nc(-c2ccc(F)cc2)cc(N2CCN(c3ncc(CO)cc3Cl)C[C@H]2C)n1 (stereo partly drawn) [Example 31, (5-Chloro-6-{4-[6-(4-fluoro-phenyl)-2-(2-methyl-pyrrolidin-1-yl)-pyrimidin-4-yl]-3-(R)-methyl-piperazin-1-yl}-pyridin-3-yl)-methanol]	≤ 1
Cc1cc(C(=O)O)cnc1N1CCN(c2cc(-c3ccc(F)cc3)nc(N3CCOC[C@H]3C)n2)[C@H](C)C1 [Example 150, 6-{4-[6-(4-Fluoro-phenyl)-2-(3-(R)-methyl-morpholin-4-yl)-pyrimidin-4-yl]-3-(R)-methyl-piperazin-1-yl}-5-methyl-nicotinic acid]	≤ 1
Cc1cccnc1N1CCN(c2nc(N3CCC[C@H]3C)nc(-c3ccc(F)cc3)c2F)[C@H](C)C1 [Example 189, 5-fluoro-4-(4-fluorophenyl)-6-[(2R)-2-methyl-4-(3-methylpyridin-2-yl)piperazin-1-yl]-2-[(2R)-2-methylpyrrolidin-1-yl]pyrimidine]	≤ 1
CCCN1CCN(c2nc(-c3ccc(F)c(Cl)c3)cc(N3CCN(c4ncc([N+](=O)[O-])cc4C)CC3)n2)CC1 [Example 14, 4-(3-Chloro-4-fluoro-phenyl)-6-[4-(3-methyl-5-nitro-pyridin-2-yl)-piperazin-l-yl]-2-(4-propyl-piperazin-1-yl)-pyrimidine]	≤ 1
Cc1cc(CO)cnc1N1CCN(c2cc(-c3ccc(F)cc3)nc(N3CCCC3C)n2)[C@H](C)C1 (stereo partly drawn) [Example 37, (6-{4-[6-(4-Fluoro-phenyl)-2-(2-methyl-pyrrolidin-1-yl)-pyrimidin-4-yl]-3-(R)-methyl-piperazin-1-yl}-5-methyl-pyridin-3-yl)-methanol]	≤ 1
Cc1cc(C(=O)O)cnc1N1CCN(c2cc(-c3ccc(F)cc3)nc(N3CCC[C@H]3C)n2)[C@H](C)C1 [Example 95, 6-{4-[6-(4-Fluoro-phenyl)-2-(2-(R)-methyl-pyrrolidin-1-yl)-pyrimidin-4-yl]-3-(R)-methyl-piperazin-1-yl}-5-methyl-nicotinic acid]	≤ 1
O=C(O)c1cnc(N2CCN(c3cc(-c4ccc(F)cc4)nc(N4CCC[C@H]4CO)n3)CC2)c(Cl)c1 [Example 158, 5-Chloro-6-{4-[6-(4-fluoro-phenyl)-2-(2-(S)-hydroxymethyl-pyrrolidin-1-yl)-pyrimidin-4-yl]-piperazin-1-yl}-nicotinic acid]	≤ 1
Cc1cc(-c2cc(N3CCN(c4ncc(C(=O)O)cc4C)C[C@H]3C)cc(N3CCC[C@H]3C)n2)ccc1F [Example 176, 6-{4-[2-(4-Fluoro-3-methyl-phenyl)-6-(2-(R)-methyl-pyrrolidin-1-yl)-pyridin-4-yl]-3-(R)-methyl-piperazin-1-yl}-5-methyl-nicotinic acid]	≤ 1
Cc1cc(CO)cnc1N1CCN(c2cc(-c3ccc(F)cc3)nc(N(C)C)n2)[C@H](C)C1 [Example 67, (6-{4-[2-Dimethylamino-6-(4-fluoro-phenyl)-pyrimidin-4-yl]-3-(R)-methyl-piperazin-1-yl}-5-methyl-pyridin-3-yl)-methanol]	≤ 1
Cc1cc(C(=O)NCC(F)(F)F)cnc1N1CCN(c2cc(-c3ccc(F)cc3)nc(N3CCCC3C)n2)CC1 (centres unmarked) [Example 120, 6-{4-[6-(4-fluorophenyl)-2-(2-methylpyrrolidin-1-yl)pyrimidin-4-yl]piperazin-1-yl}-5-methyl-N-(2,2,2-trifluoroethyl)nicotinamide]	≤ 1
Cc1cccc(-c2cc(N3CCN(c4ncc(C(N)=O)cc4C)CC3)nc(N3CCCC3C)n2)c1 (centres unmarked) [Example 88, 5-Methyl-6-{4-[2-(2-methyl-pyrrolidin-1-yl)-6-m-tolyl-pyrimidin-4-yl]-piperazin-1-yl}-nicotinamide]	≤ 1
Cc1cc(C(=O)N(C)C2CCCCC2)cnc1N1CCN(c2cc(-c3ccc(F)cc3)nc(N3CCCC3C)n2)CC1 (centres unmarked) [Example 129, N-cyclohexyl-6-{4-[6-(4-fluorophenyl)-2-(2-methylpyrrolidin-1-yl)pyrimidin-4-yl]piperazin-1-yl}-N,5-dimethylnicotinamide]	≤ 1
C[C@@H]1CN(c2ncc(C(N)=O)cc2Cl)CCN1c1cc(-c2ccc(F)cc2)nc(N2CCOC[C@H]2C)n1 [Example 143, 5-Chloro-6-{4-[6-(4-fluoro-phenyl)-2-(3-(R)-methyl-morpholin-4-yl)-pyrimidin-4-yl]-3-(R)-methyl-piperazin-1-yl}-nicotinamide]	≤ 1
CC1CCCN1c1nc(-c2ccc(F)cc2)cc(N2CCN(c3ncc(C(N)=O)cc3Cl)C[C@H]2C)n1 (stereo partly drawn) [Example 33, 5-Chloro-6-{4-[6-(4-fluoro-phenyl)-2-(2-methyl-pyrrolidin-1-yl)-pyrimidin-4-yl]-3-(R)-methyl-piperazin-1-yl}-nicotinamide]	≤ 1
